{
  "source": "patent US4110474A",
  "about": "“Tetramethylpentane blood substitutes” (Suntech, Inc., priority 1977, dated 1978)",
  "conditions": "mouse, in vivo",
  "note": "Where two headings read alike, the source gives them in different places.",
  "method": "Mice were injected with the various emulsions. The mice were killed at intervals thereafter, the liver and spleen analyzed, and the percentage of original amount of PF material injected and still in the liver and spleen was determined.",
  "data": [
    {"substance": "perfluoromethylpentane", "values": [
      {"measurement": "body retention", "value": "lack body retention characteristics"},
      {"measurement": "% FC (Of Injected Dose) in LIVER", "setting": "2880 min", "value": 15, "unit": "%"},
      {"measurement": "% FC (Of Injected Dose) in SPLEEN", "setting": "2880 min", "value": 1.4, "unit": "%"},
      {"measurement": "% FC (Of Injected Dose) in LIVER", "setting": "10080 min", "value": 12, "unit": "%"},
      {"measurement": "% FC (Of Injected Dose) in SPLEEN", "setting": "10080 min", "value": 6, "unit": "%"},
      {"measurement": "% FC (Of Injected Dose) in LIVER", "setting": "20160 min", "value": 9.3, "unit": "%"},
      {"measurement": "% FC (Of Injected Dose) in SPLEEN", "setting": "20160 min", "value": 9.2, "unit": "%"},
      {"measurement": "% FC (Of Injected Dose) in LIVER", "setting": "41760 min", "value": 2.3, "unit": "%"},
      {"measurement": "% FC (Of Injected Dose) in SPLEEN", "setting": "41760 min", "value": 2.7, "unit": "%"}
    ]}
  ]
}
